Laboratory results from patent US20240158446A1, “CYCLIC COMPOUND HAVING SELECTIVE INHIBITORY ACTION ON KRAS OVER HRAS AND NRAS” (CHUGAI SEIYAKU KABUSHIKI KAISHA, priority 2021, published 2024).
Read-outs that look alike come from different tables or passages of the source.

Columns and labels:
[1] = molecular target: GDP-bound KRAS wild-type protein (Homo sapiens, UniProt P01116); experiment: Binding to KRAS by surface plasmon resonance (SPR), Single Cycle Kinetics; conditions: GDP-bound KRAS wild-type protein, read-out: KRAS KD
[2] = molecular target: GDP-bound HRAS wild-type protein (Homo sapiens, UniProt P01112); experiment: Binding to HRAS by surface plasmon resonance (SPR), Single Cycle Kinetics; conditions: for HRAS/KRAS (ratio of KD value with respect to GDP-bound HRAS wild-type protein to KD value with respect to KRAS): SPR KD ratio HRAS/KRAS, class symbols; for HRAS/KRAS (ratio of KD value for HRAS to KD value for KRAS): SPR, GDP-bound HRAS wild-type protein vs GDP-bound KRAS wild-type protein
[3] = molecular target: GDP-bound NRAS wild-type protein (Homo sapiens, UniProt P01111); experiment: Binding to NRAS by surface plasmon resonance (SPR), Single Cycle Kinetics; conditions: for NRAS/KRAS (ratio of KD value with respect to GDP-bound NRAS wild-type protein to KD value with respect to KRAS): SPR KD ratio NRAS/KRAS, class symbols; for NRAS/KRAS (ratio of KD value for NRAS to KD value for KRAS): SPR, GDP-bound NRAS wild-type protein vs GDP-bound KRAS wild-type protein
[4] = test system: human lung cancer strain NCI-H441;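 note: cell proliferation inhibition after four days measured by CellTiter-Glo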
[5] = SPR Single Cycle Kinetics, 1:1 binding model
[6] = SPR, Single Cycle Kinetics, 1:1 binding model

GDP-bound HRAS wild-type protein, sequence (P01112 whole entry): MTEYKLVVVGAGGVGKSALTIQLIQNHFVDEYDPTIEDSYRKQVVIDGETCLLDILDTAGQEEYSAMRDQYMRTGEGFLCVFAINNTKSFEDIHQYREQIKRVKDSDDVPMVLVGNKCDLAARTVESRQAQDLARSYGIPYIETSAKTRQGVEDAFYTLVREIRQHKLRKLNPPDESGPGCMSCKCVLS
GDP-bound NRAS wild-type protein, sequence (P01111 whole entry): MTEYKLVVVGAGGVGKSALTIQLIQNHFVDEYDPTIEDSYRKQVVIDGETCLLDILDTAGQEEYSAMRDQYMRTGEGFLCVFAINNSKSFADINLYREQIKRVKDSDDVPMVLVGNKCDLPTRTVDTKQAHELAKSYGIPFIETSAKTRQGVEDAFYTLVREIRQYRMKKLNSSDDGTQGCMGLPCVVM
GDP-bound KRAS wild-type protein, sequence (P01116 whole entry): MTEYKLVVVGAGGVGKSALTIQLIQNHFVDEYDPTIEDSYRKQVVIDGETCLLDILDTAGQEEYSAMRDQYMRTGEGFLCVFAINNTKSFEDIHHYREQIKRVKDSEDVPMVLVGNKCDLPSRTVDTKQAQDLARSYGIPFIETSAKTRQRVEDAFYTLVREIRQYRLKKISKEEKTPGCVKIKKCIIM

Row | Kd [1, 5] [nM] | IC50 [4] [nM] | Kd [1, 6] [nM] | Kd ([1]; SPR, Single Cycle Kinetics) [nM] | SMILES | HRAS/KRAS (ratio of KD value with respect to GDP-bound HRAS wild-type protein to KD value with respect to KRAS) [2] | NRAS/KRAS (ratio of KD value with respect to GDP-bound NRAS wild-type protein to KD value with respect to KRAS) [3] | HRAS/KRAS (ratio of KD value for HRAS to KD value for KRAS) ([2]; KD ratio class) | NRAS/KRAS (ratio of KD value for NRAS to KD value for KRAS) ([3]; KD ratio class) | HRAS/KRAS (ratio of KD value for HRAS to KD value for KRAS) [2] | NRAS/KRAS (ratio of KD value for NRAS to KD value for KRAS) [3]
1 | 0.1 | 5.3 |  |  | CCC[C@H]1C(=O)N[C@@H]([C@@H](C)CC)C(=O)N(C)CC(=O)N(C)[C@H]2C/C=C\CCN(C2=O)[C@@H](Cc2ccc(C)cc2)C(=O)N(C)CC(=O)N[C@@H](CCc2ccc(C(F)(F)F)c(OC)c2)C(=O)N2C[C@H](OCC)C[C@H]2C(=O)NC2(CC(C)(C)C2)C(=O)N(C)[C@@H](CC(C)(C)C)C(=O)N(C)[C@H](C(=O)N(C)C)CC(=O)N1C [PP2710] | B (a compound having 3 or more and less than 10 is denoted as B) | B (a compound having 3 or more and less than 10 is denoted as B) |  |  |  | 
2 |  | 42.1 | 0.65 |  | CC[C@H](C)[C@@H]1NC(=O)[C@H](CC(C)C)N(C)C(=O)C[C@@H](C(=O)N2CCOCC2)N(C)C(=O)[C@H](C2CCCC2)N(C)C(=O)C2(CCC2)NC(=O)[C@@H]2CCCN2C(=O)[C@H](CCc2ccc(C(F)(F)F)c(Cl)c2)NC(=O)CN(C)C(=O)[C@H](Cc2ccc(C(F)(F)F)cc2)N2C[C@H](C)CC[C@@H](C2=O)N(C)C(=O)[C@@H]2CCN2C1=O (stereo in doubt) [PP1339] |  |  | B (a compound having 3 or more and less than 10 is denoted as B) | A (a compound having 10 or more and less than 20 is denoted as A) |  | 
3 |  | 34.1 | 0.36 |  | CC[C@H](C)[C@@H]1NC(=O)[C@H](CC)N(C)C(=O)C[C@@H](C(=O)N(C)C)N(C)C(=O)[C@H](C2CCCC2)N(C)C(=O)C2(CCC2)NC(=O)[C@@H]2C[C@@H](C(F)(F)F)CN2C(=O)[C@H](CCc2cc(F)c(C(F)(F)F)c(F)c2)NC(=O)CN(C)C(=O)[C@H](CC2CCCCC2)N2CC/C=C\C[C@@H](C2=O)N(C)C(=O)CN(C)C1=O [PP1465] |  |  | A (a compound having 10 or more and less than 20 is denoted as A) | A (a compound having 10 or more and less than 20 is denoted as A) |  | 
4 |  | 54.8 | 0.12 |  | CCO[C@@H]1C[C@H]2C(=O)NC3(CCC3)C(=O)N(C)[C@@H](C3CCCC3)C(=O)N(C)[C@H](C(=O)N3CCOCC3)CC(=O)N(C)[C@@H](C)C(=O)N[C@@H]([C@@H](C)CC)C(=O)N(C)CC(=O)N(C)[C@H]3C/C=C\CCN(C3=O)[C@@H](Cc3ccc(C(F)(F)F)cc3)C(=O)N(C)CC(=O)N[C@@H](CCc3cc(F)c(C(F)(F)F)c(F)c3)C(=O)N2C1 [PP1284] |  |  | A (a compound having 10 or more and less than 20 is denoted as A) | AA (a compound having 20 or more is denoted as AA) |  | 
5 |  | 19.3 | 0.27 |  | CC[C@H](C)[C@@H]1NC(=O)[C@H](CC2CC2)N(C)C(=O)C[C@@H](C(=O)N2CCOCC2)N(C)C(=O)[C@H](C2CCCC2)N(C)C(=O)C2(CCCC2)NC(=O)[C@@H]2CCCN2C(=O)[C@H](CCc2ccc(C(F)(F)F)c(Cl)c2)NC(=O)CN(C)C(=O)[C@H](Cc2ccc(C(F)(F)F)cc2)N2C[C@H](C)CC[C@@H](C2=O)N(C)C(=O)CN(C)C1=O [PP1343] |  |  | B (a compound having 3 or more and less than 10 is denoted as B) | A (a compound having 10 or more and less than 20 is denoted as A) |  | 
6 |  | 112 | 0.69 |  | CCO[C@@H]1C[C@H]2C(=O)NC3(CCC3)C(=O)N(C)[C@@H](C(CC)CC)C(=O)N(C)[C@H](C(=O)N3CCCC3)CC(=O)N(C)[C@@H](C)C(=O)N[C@@H]([C@@H](C)CC)C(=O)N(C)CC(=O)N(C)[C@H]3C/C=C\CCN(C3=O)[C@@H](CC3CCCCC3)C(=O)N(C)CC(=O)N[C@@H](CCc3cc(F)c(C(F)(F)F)c(F)c3)C(=O)N2C1 [PP1434] |  |  | A (a compound having 10 or more and less than 20 is denoted as A) | A (a compound having 10 or more and less than 20 is denoted as A) |  | 
7 |  | 20.8 | 0.066 |  | CCO[C@@H]1C[C@H]2C(=O)NC3(CCCC3)C(=O)N(C)[C@@H](C3CCCC3)C(=O)N(C)[C@H](C(=O)N(C)C)CC(=O)N(C)[C@@H](CC)C(=O)N[C@@H]([C@@H](C)CC)C(=O)N(C)CC(=O)N(C)[C@H]3C/C=C\CCN(C3=O)[C@@H](Cc3ccc(C(F)(F)F)cc3)C(=O)N(C)CC(=O)N[C@@H](CCc3cc(F)c(C(F)(F)F)c(F)c3)C(=O)N2C1 [PP1276, (2S,8S,12R,14S,20S,23S,27S,30S,36S,38Z)-20-cyclopentyl-8-[2-[3,5-difluoro-4-(trifluoromethyl)phenyl]ethyl]-12-ethoxy-27-ethyl-N,N,4,19,22,26,32,35-octamethyl-30-[(1S)-1-methylpropyl]-3,6,9,15,18,21,25,28,31,34,42-undecaoxo-2-[[4-(trifluoromethyl)phenyl]methyl]spiro[1,4,7,10,16,19,22,26,29,32,35-undecazatricyclo[34.5.1.0^10,14]dotetracont-38-ene-17,1′-cyclopentane]-23-carboxamide] |  |  | B (a compound having 3 or more and less than 10 is denoted as B) | A (a compound having 10 or more and less than 20 is denoted as A) |  | 
8 |  | 39.6 |  | 1.8 | CCC(CC)[C@H]1C(=O)N(C)[C@H](C(=O)N(C)C)CC(=O)N(C)[C@@H](CC2CC2)C(=O)N[C@@H]([C@@H](C)CC)C(=O)N(C)CC(=O)N(C)[C@H]2C/C=C\CCN(C2=O)[C@@H](CC2CCC(F)(F)CC2)C(=O)N(C)CC(=O)N[C@@H](CCc2ccc(C(F)(F)F)c(OC)c2)C(=O)N2C[C@@H](C)C[C@H]2C(=O)NC2(CC(C)(C)C2)C(=O)N1C [PP2494] |  |  |  |  | A (a compound having 10 or more and less than 20 is denoted as A) | A (a compound having 10 or more and less than 20 is denoted as A)
9 | 4.4 | 1060 |  |  | CCC[C@H]1C(=O)N[C@@H](CC(C)C)C(=O)N2C[C@@H](OC)C[C@H]2C(=O)N(C)[C@H]2C/C=C\CCN(C2=O)[C@@H](Cc2ccc(C)cc2)C(=O)N(C)CC(=O)N[C@@H](CCc2cc(F)c(C(F)(F)F)c(F)c2)C(=O)N2C[C@H](OCC)C[C@H]2C(=O)NC2(CCC2)C(=O)N(C)[C@@H](C2CCCC2)C(=O)N(C)[C@H](C(=O)N(C)C)CC(=O)N1C [PP2547] | B (a compound having 3 or more and less than 10 is denoted as B) | A (a compound having 10 or more and less than 20 is denoted as A) |  |  |  | 
10 |  | 17.8 | 0.48 |  | CCO[C@@H]1C[C@H]2C(=O)NC3(CCC3)C(=O)N(C)[C@@H](C(CC)CC)C(=O)N(C)[C@H](C(=O)N(C)C)CC(=O)N(C)[C@@H](CC(C)C)C(=O)N[C@@H]([C@@H](C)CC)C(=O)N(C)CC(=O)N(C)[C@H]3C/C=C\CCN(C3=O)[C@@H](Cc3ccc(C(F)(F)F)cc3)C(=O)N(C)CC(=O)N[C@@H](CCc3ccc(Cl)c(Cl)c3)C(=O)N2C1 [PP1217] |  |  | A (a compound having 10 or more and less than 20 is denoted as A) | AA (a compound having 20 or more is denoted as AA) |  | 
